Laboratory results taken from patent publication US6531454B1, “Glycosylated polyamines and methods of use therefor” (The Regents of the University of California, priority 1999, dated 2003).

Legend:
Type in all cases: cell-based
[1] = system: CAKI-1 renal cancer cell lines; assay: In vitro tumor cell growth inhibition (cytotoxicity assay), renal cancer cell line; conditions: CAKI-1 renal cancer cells
Procedure: (§1) Cytotoxicity may be measured using a standard methodology for adherent cell lines such as the microculture tetrazolium assay (MTT). Details of this assay have been published (Alley, M C et al, Cancer Research 48:589-601, 1988). Exponentially growing cultures of tumor cells such as the HT-29 colon carcinoma or LX-1 lung tumor can be used to make microtiter plate cultures. Cells can be seeded at 5000-20,000 cells per well in 96-well plates (in 150 μl of media), and grown overnight at 37° C. Test compounds are added, in 10-fold dilutions varying from 10^−4 M to 10^−10 M.
(§2) Cells are then incubated for 48-72 hours. To determine the number of viable cells in each well, the MTT dye is added (50 μl of 3 mg/ml solution of 3-(4,5-dimethylthiazol-2-yl)-2,5-diphenyltetrazolium bromide in saline). This mixture is incubated at 37° C. for 5 hours, and then 50 μl of 25% SDS, pH 2 is added to each well. After an overnight incubation, the absorbance of each well at 550 mn is read using an ELISA reader. The values for the mean+/−SD of data from quadruplicate wells are calculated, using standard formula as for the %T/C (%viable cells treated/control). Additional methods as described by Inhibition of the growth of tumor cells was determined as described by Patil, S. D., et al J. Med. Chem., 32, 1284 (1989) may be used as well.
(§3) The concentration of test compound which gives a T/C of 50% growth inhibition is designated as the IC50.
(§4) Typically, the cells are grown in RPMI 1640 medium supplemented with 10 nM calcium leucovorin instead of folic acid as the folate source, 10% dialyzed fetal calf serum, penicillin and streptomycin. Additional ingredients may be added depending on the particular needs of the cells being cultured. […]
(§5) Cells are seeded into 96-well plates using a pipeting mechanism such as Perkin-Elmer Pro/pette. […] Inhibition of cell growth may be measured using the MTT dye reduction assay as described above.

[2] = system: OVCAR-4 ovarian carcinoma cell lines; assay: In vitro tumor cell growth inhibition (cytotoxicity assay), ovarian carcinoma cell line; conditions: OVCAR-4 ovarian carcinoma cells
Procedure: as §1, §2, §3, §4, §5

MDA-MB-435 cells = assay: In vitro tumor cell growth inhibition (cytotoxicity assay), breast cancer cell line; conditions: MDA-MB-435 breast cancer cells
Procedure: as §1, §2, §3, §4, §5

[3] = system: KM12 colon cancer cell lines; assay: In vitro tumor cell growth inhibition (cytotoxicity assay), colon cancer cell line; conditions: KM12 colon cancer cells
Procedure: as §1, §2, §3, §4, §5

[4] = Homo sapiens, read-out: LC50 (the source's name)

Compound: Cl.OCC1OC(NCCNCCNC2OC(CO)C(O)C(O)C2O)C(O)C(O)C1O [Compound 1, 1,3-N,N-di-β-D-glucopyranosyl-diethylenetriamine]
- TGI [1]: about 10 μM
- GI50 ([1]; Homo sapiens): 3.1 µM
- CC50 [1, 4]: 30 µM
- GI50 ([2]; Homo sapiens): 1.63 µM
- CC50 [2, 4]: ~7.7 µM
- TGI [2]: about 3.5 μM
- GI50 (MDA-MB-435 cells; Homo sapiens, read-out: GI50 (inhibited growth by 50%)): 1.72 µM
- LC50 (MDA-MB-435 cells; Homo sapiens, read-out: LC50 (lethal concentration to kill 50% of the cells)): ~6 µM
- Total growth inhibition (TGI) (MDA-MB-435 cells): 3.23 µM
- GI50 ([3]; Homo sapiens): ~10 µM
- CC50 [3, 4]: ~48 µM
- TGI [3]: about 22 μM
